Laboratory results as given in PMC4770715, “LIM kinase inhibitors disrupt mitotic microtubule organization and impair tumor cell proliferation” (Oncotarget, 2015).

Tests used:
Assay in all cases: biochemical
Design in all cases: KINOMEscan active-site competition binding, percent of control (100 = no competition)
Settings in all cases: competition binding, percent control
[1] = molecular target: AAK1 (Homo sapiens, UniProt Q2M2I8)
[2] = molecular target: T1, ABL1(Y253F)-phosphorylated (Homo sapiens, UniProt P00519, Y253F)
T1 construct: phosphorylated

[3] = molecular target: ALK (Homo sapiens, UniProt Q9UM73)
[4] = molecular target: T2, AMPK-alpha2 (Homo sapiens, UniProt P54646)
T2 construct: gene PRKAA2

[5] = molecular target: AXL (Homo sapiens, UniProt P30530)
[6] = molecular target: CAMK2D (Homo sapiens, UniProt Q13557)
[7] = molecular target: T3, CDK4-cyclinD1 (Homo sapiens, UniProt P11802)
T3 construct: cyclinD1

[8] = molecular target: CSNK1A1 (Homo sapiens, UniProt P48729)
[9] = molecular target: EGFR(E746-A750del) (Homo sapiens, UniProt P00533, DEL746-750)
[10] = molecular target: T4, JNK1 (Homo sapiens, UniProt P45983)
T4 construct: gene MAPK8
T4 sequence (P45983 whole entry): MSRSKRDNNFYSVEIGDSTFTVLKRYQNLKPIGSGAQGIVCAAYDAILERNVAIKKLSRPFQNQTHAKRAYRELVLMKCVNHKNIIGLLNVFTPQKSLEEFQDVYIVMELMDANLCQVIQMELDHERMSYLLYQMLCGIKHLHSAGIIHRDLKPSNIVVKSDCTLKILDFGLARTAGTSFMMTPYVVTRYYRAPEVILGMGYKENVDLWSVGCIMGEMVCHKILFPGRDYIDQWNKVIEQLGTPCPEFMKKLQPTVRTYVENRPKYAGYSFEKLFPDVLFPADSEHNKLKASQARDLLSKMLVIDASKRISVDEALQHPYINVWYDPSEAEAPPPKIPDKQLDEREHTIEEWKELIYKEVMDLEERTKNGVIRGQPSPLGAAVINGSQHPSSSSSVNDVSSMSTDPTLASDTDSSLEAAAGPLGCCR

[11] = molecular target: KIT(V559D,V654A) (Homo sapiens, UniProt P10721, V559D/V654A)
[12] = molecular target: LRRK2(G2019S) (Homo sapiens, UniProt Q5S007, G2019S)
LRRK2(G2019S), sequence (Q5S007 whole entry G2019S): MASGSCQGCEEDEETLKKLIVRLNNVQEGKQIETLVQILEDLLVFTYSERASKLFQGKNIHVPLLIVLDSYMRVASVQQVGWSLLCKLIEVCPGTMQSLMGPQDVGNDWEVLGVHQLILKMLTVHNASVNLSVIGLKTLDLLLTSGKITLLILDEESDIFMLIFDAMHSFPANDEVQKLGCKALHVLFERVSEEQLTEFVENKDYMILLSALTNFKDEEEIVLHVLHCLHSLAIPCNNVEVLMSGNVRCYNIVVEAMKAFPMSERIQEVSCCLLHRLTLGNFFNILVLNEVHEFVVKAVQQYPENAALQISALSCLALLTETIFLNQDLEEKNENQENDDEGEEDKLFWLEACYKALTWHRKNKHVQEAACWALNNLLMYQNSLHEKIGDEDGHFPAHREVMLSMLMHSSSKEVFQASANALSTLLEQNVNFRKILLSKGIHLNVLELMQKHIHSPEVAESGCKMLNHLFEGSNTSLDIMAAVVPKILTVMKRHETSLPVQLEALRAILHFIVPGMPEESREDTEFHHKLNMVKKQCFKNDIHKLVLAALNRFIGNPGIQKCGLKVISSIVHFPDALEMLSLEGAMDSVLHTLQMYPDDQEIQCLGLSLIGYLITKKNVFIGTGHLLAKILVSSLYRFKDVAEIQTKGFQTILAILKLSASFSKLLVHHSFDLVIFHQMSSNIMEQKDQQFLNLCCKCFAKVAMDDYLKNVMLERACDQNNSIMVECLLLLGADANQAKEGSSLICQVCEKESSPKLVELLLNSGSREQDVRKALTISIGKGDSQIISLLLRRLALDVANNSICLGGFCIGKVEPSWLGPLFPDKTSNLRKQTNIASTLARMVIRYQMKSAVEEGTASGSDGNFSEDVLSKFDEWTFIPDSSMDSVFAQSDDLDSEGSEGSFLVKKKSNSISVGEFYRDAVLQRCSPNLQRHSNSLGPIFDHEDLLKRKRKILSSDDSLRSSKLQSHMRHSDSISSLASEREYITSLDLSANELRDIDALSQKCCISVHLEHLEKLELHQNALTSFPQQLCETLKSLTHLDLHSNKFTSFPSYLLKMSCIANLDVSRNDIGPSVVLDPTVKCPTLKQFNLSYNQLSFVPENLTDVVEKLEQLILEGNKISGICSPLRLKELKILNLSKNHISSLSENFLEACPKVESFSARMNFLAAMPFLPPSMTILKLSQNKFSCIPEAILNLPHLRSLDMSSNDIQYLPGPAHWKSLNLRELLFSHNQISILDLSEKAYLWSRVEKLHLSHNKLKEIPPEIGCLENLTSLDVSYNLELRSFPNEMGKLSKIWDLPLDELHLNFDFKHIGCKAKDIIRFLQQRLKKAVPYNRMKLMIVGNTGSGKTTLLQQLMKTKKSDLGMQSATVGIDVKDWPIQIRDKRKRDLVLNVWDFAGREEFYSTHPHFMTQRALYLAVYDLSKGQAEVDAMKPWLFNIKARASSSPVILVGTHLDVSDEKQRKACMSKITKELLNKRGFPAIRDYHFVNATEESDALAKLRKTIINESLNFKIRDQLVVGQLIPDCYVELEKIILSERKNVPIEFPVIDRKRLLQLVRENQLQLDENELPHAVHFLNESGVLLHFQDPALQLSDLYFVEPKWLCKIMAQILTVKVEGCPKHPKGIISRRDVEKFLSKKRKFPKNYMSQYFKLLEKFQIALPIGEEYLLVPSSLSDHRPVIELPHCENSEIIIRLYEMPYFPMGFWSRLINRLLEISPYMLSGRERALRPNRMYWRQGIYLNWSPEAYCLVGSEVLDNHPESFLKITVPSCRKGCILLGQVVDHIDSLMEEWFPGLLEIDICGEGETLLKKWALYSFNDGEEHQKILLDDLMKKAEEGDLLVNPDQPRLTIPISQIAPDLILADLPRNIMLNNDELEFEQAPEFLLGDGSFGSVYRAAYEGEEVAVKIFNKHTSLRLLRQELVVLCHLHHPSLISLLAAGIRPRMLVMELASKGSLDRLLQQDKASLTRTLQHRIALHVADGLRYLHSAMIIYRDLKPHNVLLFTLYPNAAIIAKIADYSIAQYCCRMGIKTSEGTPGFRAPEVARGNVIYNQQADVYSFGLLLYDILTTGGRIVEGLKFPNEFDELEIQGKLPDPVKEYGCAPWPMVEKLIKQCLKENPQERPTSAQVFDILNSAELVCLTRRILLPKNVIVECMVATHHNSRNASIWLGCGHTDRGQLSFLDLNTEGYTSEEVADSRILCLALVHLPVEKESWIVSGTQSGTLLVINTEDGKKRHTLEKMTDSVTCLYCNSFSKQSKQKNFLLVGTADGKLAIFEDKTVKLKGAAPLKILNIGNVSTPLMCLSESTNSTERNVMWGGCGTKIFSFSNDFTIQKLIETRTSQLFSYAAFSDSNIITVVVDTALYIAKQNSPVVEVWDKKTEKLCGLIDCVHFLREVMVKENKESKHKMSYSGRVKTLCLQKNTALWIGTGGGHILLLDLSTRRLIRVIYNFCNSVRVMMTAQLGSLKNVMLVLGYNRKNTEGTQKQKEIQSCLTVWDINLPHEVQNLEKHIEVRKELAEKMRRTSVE

[13] = molecular target: T5, MEK4 (Homo sapiens, UniProt P45985)
T5 construct: gene MAP2K4
T5 sequence (P45985 whole entry): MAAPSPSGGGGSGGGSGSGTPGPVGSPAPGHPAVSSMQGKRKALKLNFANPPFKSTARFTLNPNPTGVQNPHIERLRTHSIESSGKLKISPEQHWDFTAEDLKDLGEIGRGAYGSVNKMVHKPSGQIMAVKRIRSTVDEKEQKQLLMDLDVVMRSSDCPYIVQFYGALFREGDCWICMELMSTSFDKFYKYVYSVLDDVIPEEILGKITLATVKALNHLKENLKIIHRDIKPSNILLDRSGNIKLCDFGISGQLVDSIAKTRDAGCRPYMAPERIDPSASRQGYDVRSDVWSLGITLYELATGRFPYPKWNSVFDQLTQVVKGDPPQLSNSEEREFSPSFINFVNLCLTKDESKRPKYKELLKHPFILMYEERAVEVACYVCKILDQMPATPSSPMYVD

[14] = molecular target: T6, MST3 (Homo sapiens, UniProt Q9Y6E0)
T6 construct: gene STK24

[15] = molecular target: PAK4 (Homo sapiens, UniProt O96013)
[16] = molecular target: T7, PIP5K2B (Homo sapiens, UniProt P78356)
T7 construct: gene PIP4K2B
T7 sequence (P78356 whole entry): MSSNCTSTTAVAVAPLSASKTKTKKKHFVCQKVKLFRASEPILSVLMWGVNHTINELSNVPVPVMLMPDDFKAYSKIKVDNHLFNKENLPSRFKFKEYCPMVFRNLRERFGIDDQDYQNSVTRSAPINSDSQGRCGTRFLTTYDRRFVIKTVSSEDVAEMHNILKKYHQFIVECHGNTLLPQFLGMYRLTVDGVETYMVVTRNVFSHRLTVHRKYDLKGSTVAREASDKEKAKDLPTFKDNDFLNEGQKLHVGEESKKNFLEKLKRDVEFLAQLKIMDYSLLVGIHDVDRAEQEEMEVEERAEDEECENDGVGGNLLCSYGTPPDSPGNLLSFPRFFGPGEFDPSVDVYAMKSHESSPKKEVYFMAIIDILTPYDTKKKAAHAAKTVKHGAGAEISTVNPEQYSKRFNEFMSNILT

[17] = molecular target: RIPK4 (Homo sapiens, UniProt P57078)
[18] = molecular target: T8, RSK1(Kin.Dom.1-N-terminal) (Homo sapiens, UniProt Q15418)
T8 construct: gene RPS6KA1; Kin.Dom.1-N-terminal

[19] = molecular target: T9, SIK (Homo sapiens, UniProt P57059)
T9 construct: gene SIK1
T9 sequence (P57059 whole entry): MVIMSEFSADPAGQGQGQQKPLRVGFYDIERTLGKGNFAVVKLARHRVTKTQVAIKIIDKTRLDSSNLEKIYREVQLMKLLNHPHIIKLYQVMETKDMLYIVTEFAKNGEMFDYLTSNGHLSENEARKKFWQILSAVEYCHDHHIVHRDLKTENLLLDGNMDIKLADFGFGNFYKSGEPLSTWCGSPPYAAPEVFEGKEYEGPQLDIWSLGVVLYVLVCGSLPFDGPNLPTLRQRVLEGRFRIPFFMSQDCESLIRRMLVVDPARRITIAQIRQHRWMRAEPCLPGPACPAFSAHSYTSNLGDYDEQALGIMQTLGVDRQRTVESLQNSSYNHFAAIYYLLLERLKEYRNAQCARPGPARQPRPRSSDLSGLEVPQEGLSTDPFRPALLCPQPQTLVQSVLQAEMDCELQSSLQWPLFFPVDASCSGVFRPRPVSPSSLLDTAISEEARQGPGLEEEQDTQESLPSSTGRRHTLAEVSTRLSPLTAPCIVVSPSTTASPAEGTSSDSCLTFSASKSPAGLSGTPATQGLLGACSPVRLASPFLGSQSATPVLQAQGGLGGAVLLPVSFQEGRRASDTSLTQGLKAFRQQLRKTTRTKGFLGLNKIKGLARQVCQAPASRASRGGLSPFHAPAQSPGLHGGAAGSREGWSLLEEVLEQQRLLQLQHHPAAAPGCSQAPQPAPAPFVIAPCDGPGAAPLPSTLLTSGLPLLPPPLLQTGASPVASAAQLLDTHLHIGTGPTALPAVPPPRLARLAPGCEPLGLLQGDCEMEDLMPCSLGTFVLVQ

[20] = molecular target: TBK1 (Homo sapiens, UniProt Q9UHD2)
[21] = molecular target: VRK2 (Homo sapiens, UniProt Q86Y07)
VRK2, sequence (Q86Y07 whole entry): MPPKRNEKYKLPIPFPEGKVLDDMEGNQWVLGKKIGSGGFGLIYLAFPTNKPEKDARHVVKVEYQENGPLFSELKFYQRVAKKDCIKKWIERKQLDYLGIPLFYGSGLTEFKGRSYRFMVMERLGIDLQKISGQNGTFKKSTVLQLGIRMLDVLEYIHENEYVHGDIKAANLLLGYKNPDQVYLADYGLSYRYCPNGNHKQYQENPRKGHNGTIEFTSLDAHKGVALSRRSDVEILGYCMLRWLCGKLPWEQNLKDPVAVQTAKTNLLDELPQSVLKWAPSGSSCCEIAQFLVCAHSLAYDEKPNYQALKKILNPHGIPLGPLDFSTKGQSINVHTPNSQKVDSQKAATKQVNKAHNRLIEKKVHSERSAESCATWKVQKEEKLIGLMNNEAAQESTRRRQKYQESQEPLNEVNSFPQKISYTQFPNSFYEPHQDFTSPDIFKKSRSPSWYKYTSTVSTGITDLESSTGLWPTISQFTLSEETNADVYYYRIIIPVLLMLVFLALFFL

[22] = molecular target: T10, YANK1 (Homo sapiens, UniProt Q8WU08)
T10 construct: gene STK32A

Compound | remaining binding at 10 µM [1] | remaining binding at 10 µM [2] | remaining binding at 10 µM [3] | remaining binding at 10 µM [4] | remaining binding at 10 µM [5] | remaining binding at 10 µM [6] | remaining binding at 10 µM [7] | remaining binding at 10 µM [8] | remaining binding at 10 µM [9] | remaining binding at 10 µM [10] | remaining binding at 10 µM [11] | remaining binding at 10 µM [12] | remaining binding at 10 µM [13] | remaining binding at 10 µM [14] | remaining binding at 10 µM [15] | remaining binding at 10 µM [16] | remaining binding at 10 µM [17] | remaining binding at 10 µM [18] | remaining binding at 10 µM [19] | remaining binding at 10 µM [20] | also measured
COc1ccc(-c2cnccc2-c2cnc(NC(=O)C(C)C)s2)c(C(F)(F)F)c1 [CRT0105446, N-{5-[3-(4-Methoxy-2-trifluoromethyl-phenyl)-pyridin-4-yl]-hiazol-2-yl}-isobutyramide] | 78% | 89% | 89% | 3.9% | 87% | 72% | 20% | 100% | 100% | 34% | 100% | 86% | 82% | 72% | 82% | 100% | 100% | 56% | 84% | 82% | remaining binding at 10 µM [21]: 95%; remaining binding at 10 µM [22]: 69%
Cc1ccc(-c2cnccc2-c2cnc(Nc3ccc(O)cc3)s2)c(Cl)c1 [CRT0105950, 4-{5-[3-(2-Chloro-4-methyl-phenyl)-pyridin-4-yl]-thiazol-2-ylamino}-phenol] | 51% | 74% | 20% | 2% | 43% | 29% | 3.7% | 88% | 78% | 40% | 11% | 56% | 1.8% | 40% | 79% | 44% | 99% | 0.05% | 6.4% | 52% | remaining binding at 10 µM [21]: 72%; remaining binding at 10 µM [22]: 88%
